These results are taken from US11634425B2, “Pharmaceutical compounds” (priority 2019, dated 2023).

pEC50: −log10 of the molar value.

One data set in a line: Cell cytotoxicity (CC50). The format is cell-based. The note with it: human; mean of at least two experiments. From the text: (§1) Compounds were subjected to RSV plaque reduction assays according to the following protocol. Plaque EC50 and cell toxicity CC50 values are a mean of at least two experiments and figures are rounded to whole units.
(§2) Plates were scanned and analysed using the Immunospot S6 Macro analyser, which is equipped with BioSpot analysis software for counting immunostained plaques (virospots). Plaque counts were used to calculate % c infection relative to the mean of the plaque count in the virus control wells for RSV. The EC50 value was calculated as 50% reduction in signal, respectively, by interpolation of inhibition curves fitted with a 4-parameter nonlinear regression with a variable slope in Dotmatics. Plaque EC50 and cell toxicity CC50 values are a mean of at least two experiments and figures are rounded to whole units.

In the next data set the test system is RSV A2. In words: RSV plaque reduction assay. The format is cell-based, respiratory syncytial virus (RSV). The note with it: human respiratory syncytial virus, HepG2, Hep-G2 cells, mean of at least two experiments. Here is the method: as §1
Hep-G2 cells (ECACC, 85011430) were passaged in flasks and seeded in 24-well plates in DMEM containing antibiotics and supplemented with 10% FBS. During inoculation and subsequent incubation, cells were cultured in DMEM containing 2% FBS. 100 plaque forming unit/well of RSV (RSV A2 ECACC, 0709161v) was mixed with eight serial dilutions of compound. Subsequently, 100 μL of the virus/compound mixtures was added to confluent Hep-G2 cell monolayers. The cells and virus/compound mixtures were incubated at 37° C. in a humidified 5% CO2 incubator for 2 h prior to removal of the inoculum and addition of 1 mL of overlay (DMEM containing 2% FBS and 0.8% CMC) containing compound dilutions. The cells and were incubated at 37° C. in a humidified 5% CO2 incubator for 2 days.
Cells were washed with PBS before adding 75/25% […] EtOH/MeOH, for 3 min. Fixative was removed and plates were washed with PBS. A pre-titrated amount of the primary antibody was added in 200 μL PBS/2% milk powder, and plates incubated for 90 min at 37° C. The plates were washed 3 times with PBS/0.05% Tween20 before addition of rabbit anti-goat horse radish peroxidase in 200 μL PBS/2% milk powder, and incubated for 1 h at 37° C. Following three wash steps with PBS/0.05% Tween20, 200 μL ready-to-use TrueBlue was added and plates were incubated at rt for 10-15 min before washing with water. After removal of water, plates were air-dried in the dark.
as §2

With `O=C(N[C@H]1N=C(c2ccccc2)c2ccccc2NC1=O)c1c(-c2cncc(C3CC3)c2)nn2cccnc12` [Example 31, 2-(5-Cyclopropylpyridin-3-yl)-N-[(3S)-2-oxo-5-phenyl-1,3-dihydro-1,4-benzodiazepin-3-yl]pyrazolo[1,5-a]pyrimidine-3-carboxamide], in the data set “Cell cytotoxicity (CC50)”, the CC50 is > 25000 nM. In the data set on RSV A2, this compound showed a pEC50 of 7.02.

In the case of `Cc1cnc2c(C(=O)N[C@H]3N=C(c4ccccc4)c4ccccc4NC3=O)c(-c3ccccc3F)nn2c1` [Example 33, 2-(2-Fluorophenyl)-6-methyl-N-[(3S)-2-oxo-5-phenyl-1,3-dihydro-1,4-benzodiazepin-3-yl]pyrazolo[1,5-a]pyrimidine-3-carboxamide], the 50% cytotoxic concentration (CC50) in “Cell cytotoxicity (CC50)” is > 25000 nM. The compound further had a pEC50 with RSV A2 of 7.54.

On to `Cc1ccn2nc(-c3ccc(F)cc3F)c(C(=O)N[C@H]3N=C(c4ccccc4)c4ccccc4NC3=O)c2n1` [Example 35, 2-(2,4-Difluorophenyl)-5-methyl-N-[(3S)-2-oxo-5-phenyl-1,3-dihydro-1,4-benzodiazepin-3-yl]pyrazolo[1,5-a]pyrimidine-3-carboxamide], for which, in “Cell cytotoxicity (CC50)”, the CC50 was > 25000 nM. In addition, the pEC50 with RSV A2 is 7.54.

On to `O=C(N[C@H]1N=C(c2ccccc2)c2cccc(F)c2NC1=O)c1c(-c2ccccc2F)nn2ccc(N3CCCC3)nc12` [Example 40, N-[(3S)-9-Fluoro-2-oxo-5-phenyl-1,3-dihydro-1,4-benzodiazepin-3-yl]-2-(2-fluorophenyl)-5-pyrrolidin-1-ylpyrazolo[1,5-a]pyrimidine-3-carboxamide], for which the CC50 in “Cell cytotoxicity (CC50)” is > 25000 nM. This compound showed a pEC50 in the data set on RSV A2 of 7.29.

`O=C(N[C@H]1N=C(c2ccccc2)c2ccccc2NC1=O)c1c(-c2ccccc2F)nn2ccc(N3CCCC3)nc12` [Example 41, 2-(2-Fluorophenyl)-N-[(3S)-2-oxo-5-phenyl-1,3-dihydro-1,4-benzodiazepin-3-yl]-5-pyrrolidin-1-ylpyrazolo[1,5-a]pyrimidine-3-carboxamide]: the CC50 in the data set “Cell cytotoxicity (CC50)” was > 25000 nM. In the data set with RSV A2, this compound showed a pEC50 of 7.10.

Take `O=C(N[C@H]1N=C(c2ccccc2)c2ccccc2NC1=O)c1c(-c2ccc(N3CCCC3)cc2F)nn2cccnc12` [Example 45, 2-(2-Fluoro-4-pyrrolidin-1-ylphenyl)-N-[(3S)-2-oxo-5-phenyl-1,3-dihydro-1,4-benzodiazepin-3-yl]pyrazolo[1,5-a]pyrimidine-3-carboxamide]: the cytotoxic concentration (CC50) in the data set “Cell cytotoxicity (CC50)” is > 25000 nM. Also, in the data set on RSV A2, the pEC50 is 6.99.

For `Cc1ccc2nc(-c3cncc(C(F)(F)F)c3)c(C(=O)N[C@H]3N=C(c4ccccc4)c4ccccc4NC3=O)n2n1` [Example 46, 6-Methyl-N-[(3S)-2-oxo-5-phenyl-1,3-dihydro-1,4-benzodiazepin-3-yl]-2-[5-(trifluoromethyl)pyridin-3-yl]imidazo[1,2-b]pyridazine-3-carboxamide], in “Cell cytotoxicity (CC50)”, the CC50 was > 25000 nM. Further, the pEC50 in the data set with RSV A2 was 7.03.

As to `Cc1ccc2nc(-c3cncc(C(F)(F)F)c3)c(C(=O)N[C@H]3N=C(c4ccccc4)c4cccc(F)c4NC3=O)n2n1` [Example 47, N-[(3S)-9-fluoro-2-oxo-5-phenyl-1,3-dihydro-1,4-benzodiazepin-3-yl]-6-methyl-2-[5-(trifluoromethyl)pyridin-3-yl]imidazo[1,2-b]pyridazine-3-carboxamide], the CC50 in “Cell cytotoxicity (CC50)” is > 25000 nM. This compound had a pEC50 in the data set with RSV A2 of 7.00.

As for `Cc1ccc(-c2nn3cccnc3c2C(=O)N[C@H]2N=C(c3ccccc3)c3ccccc3NC2=O)cn1` [Example 49, 2-(6-Methylpyridin-3-yl)-N-[(3S)-2-oxo-5-phenyl-1,3-dihydro-1,4-benzodiazepin-3-yl]pyrazolo[1,5-a]pyrimidine-3-carboxamide], in “Cell cytotoxicity (CC50)”, the CC50 was > 25000 nM. The compound also had a pEC50 in the data set with RSV A2 of 7.00.

`COCCc1ccc(-c2nn3cccnc3c2C(=O)N[C@H]2N=C(c3ccccc3)c3cccc(F)c3NC2=O)cn1` [Example 51, 2-[6-(2-methoxyethyl)pyridin-3-yl]-N-[(3S)-9-fluoro-2-oxo-5-phenyl-1,3-dihydro-1,4-benzodiazepin-3-yl]pyrazolo[1,5-a]pyrimidine-3-carboxamide]: the CC50 in the data set “Cell cytotoxicity (CC50)” is > 25000 nM. Moreover, the pEC50 in the data set on RSV A2 is 7.04.

Consider `Cc1cc(-c2nn3cccnc3c2C(=O)N[C@H]2N=C(c3ccccc3)c3cccc(F)c3NC2=O)ccn1` [Example 52, N-[(3S)-9-fluoro-2-oxo-5-phenyl-1,3-dihydro-1,4-benzodiazepin-3-yl]-2-(2-methylpyridin-4-yl)pyrazolo[1,5-a]pyrimidine-3-carboxamide], for which the CC50 in the data set “Cell cytotoxicity (CC50)” was > 25000 nM. In the data set on RSV A2, this compound gave a pEC50 of 6.99.

As for `CCOc1ccc(-c2nn3cccnc3c2C(=O)N[C@H]2N=C(c3ccccc3)c3cccc(F)c3NC2=O)cn1` [Example 53, 2-(6-Ethoxypyridin-3-yl)-N-[(3S)-9-fluoro-2-oxo-5-phenyl-1,3-dihydro-1,4-benzodiazepin-3-yl]pyrazolo[1,5-a]pyrimidine-3-carboxamide], the CC50 in “Cell cytotoxicity (CC50)” was > 25000 nM. In the data set with RSV A2, the pEC50 is 7.01.

On to `CCc1ccc(-c2nn3cccnc3c2C(=O)N[C@H]2N=C(c3ccccc3)c3ccccc3NC2=O)c(C)n1` [Example 56], for which, in the data set “Cell cytotoxicity (CC50)”, the CC50 was > 25000 nM. For the same compound, in the data set with RSV A2, the pEC50 is 7.20.

`CC(C)c1ccc(-c2nn3cccnc3c2C(=O)N[C@H]2N=C(c3ccccc3)c3ccccc3NC2=O)cn1` [Example 58, 2-(6-Propan-2-ylpyridin-3-yl)-N-[(3S)-2-oxo-5-phenyl-1,3-dihydro-1,4-benzodiazepin-3-yl]pyrazolo[1,5-a]pyrimidine-3-carboxamide]: the CC50 in the data set “Cell cytotoxicity (CC50)” was > 25000 nM. For the same compound, the pEC50 with RSV A2 was 7.16.

For `CCNc1ccc(-c2nn3cccnc3c2C(=O)N[C@H]2N=C(c3ccccc3)c3ccccc3NC2=O)c(F)n1` [Example 65, 2-[6-(Ethylamino)-2-fluoropyridin-3-yl]-N-[(3S)-2-oxo-5-phenyl-1,3-dihydro-1,4-benzodiazepin-3-yl]pyrazolo[1,5-a]pyrimidine-3-carboxamide], the 50% cytotoxic concentration (CC50) in “Cell cytotoxicity (CC50)” is > 25000 nM. The compound also had a pEC50 in the data set with RSV A2 of 7.74.

`CCNc1ccc(-c2nn3cccnc3c2C(=O)N[C@H]2N=C(c3ccccc3)c3cccc(F)c3NC2=O)c(F)n1` [Example 66, 2-[6-(Ethylamino)-2-fluoropyridin-3-yl]-N-[(3S)-9-fluoro-2-oxo-5-phenyl-1,3-dihydro-1,4-benzodiazepin-3-yl]pyrazolo[1,5-a]pyrimidine-3-carboxamide]: in “Cell cytotoxicity (CC50)”, the CC50 was > 25000 nM. Further, in the data set with RSV A2, the negative logarithm of the EC50 (pEC50) is 7.89.

As for `CC1COCCN1c1ccc(-c2nn3cccnc3c2C(=O)N[C@H]2N=C(c3ccccc3)c3ccccc3NC2=O)cn1` (stereo partly drawn) [Example 67, 2-[6-(3-Methylmorpholin-4-yl)pyridin-3-yl]-N-[(3S)-2-oxo-5-phenyl-1,3-dihydro-1,4-benzodiazepin-3-yl]pyrazolo[1,5-a]pyrimidine-3-carboxamide], in “Cell cytotoxicity (CC50)”, the CC50 was > 25000 nM. The compound also had a negative-log EC50 (pEC50) with RSV A2 of 6.85.

As to `CC1COCCN1c1ccc(-c2nn3cccnc3c2C(=O)N[C@H]2N=C(c3ccccc3)c3cccc(F)c3NC2=O)cn1` (stereo partly drawn) [Example 68, 2-[6-(3-Methylmorpholin-4-yl)pyridin-3-yl]-N-[(3S)-9-fluoro-2-oxo-5-phenyl-1,3-dihydro-1,4-benzodiazepin-3-yl]pyrazolo[1,5-a]pyrimidine-3-carboxamide], the CC50 in the data set “Cell cytotoxicity (CC50)” was > 25000 nM. In the data set on RSV A2, this compound showed a pEC50 of 6.94.

Take `Cn1ccc2cc(-c3nn4cccnc4c3C(=O)N[C@H]3N=C(c4ccccc4)c4cccc(F)c4NC3=O)cnc21` [Example 71, N-[(3S)-9-fluoro-2-oxo-5-phenyl-1,3-dihydro-1,4-benzodiazepin-3-yl]-2-(1-methylpyrrolo[2,3-b]pyridin-5-yl)pyrazolo[1,5-a]pyrimidine-3-carboxamide]: in “Cell cytotoxicity (CC50)”, the cytotoxic concentration (CC50) is > 25000 nM. In the data set on RSV A2, this compound had a negative-log EC50 (pEC50) of 7.00.

On to `CC(C)Nc1ccc(-c2nn3cccnc3c2C(=O)N[C@H]2N=C(c3ccccc3)c3ccccc3NC2=O)cn1` [Example 73, N-[(3S)-2-oxo-5-phenyl-1,3-dihydro-1,4-benzodiazepin-3-yl]-2-[6-(propan-2-ylamino)pyridin-3-yl]pyrazolo[1,5-a]pyrimidine-3-carboxamide], for which the CC50 in the data set “Cell cytotoxicity (CC50)” was > 25000 nM. The pEC50 in the data set with RSV A2 is 7.35.

Take `COc1ccc(-c2nn3cccnc3c2C(=O)N[C@H]2N=C(c3ccccc3)c3cccc(F)c3NC2=O)cn1` [Example 76, N-[(3S)-9-fluoro-2-oxo-5-phenyl-1,3-dihydro-1,4-benzodiazepin-3-yl]-2-(6-methoxypyridin-3-yl)pyrazolo[1,5-a]pyrimidine-3-carboxamide]: the CC50 in the data set “Cell cytotoxicity (CC50)” is > 25000 nM. This compound gave a pEC50 with RSV A2 of 7.03.
